Measured values published in PMC4928336, “A microalga, Euglena tuba induces apoptosis and suppresses metastasis in human lung and breast carcinoma cells through ROS-mediated regulation of MAPKs” (Cancer Cell International, 2016).
Values after ≈ are worked out from the molar mass of the structure shown.

Legend:
Assay in all cases: cells
A549 cells = settings: for IC50: Homo sapiens, A549, 48 h, read-out: IC50 against A549; for IC50 against A549: WST-1, 48 h, mean ± SD (n = 6)
Protocol: (§1) Cell viability were analysed using the WST-1 cell proliferation reagent according to the earlier described technique. All cells (1 × 10^4 cells/well) were treated for 48 h with concentrations ranging from 0–200 µg/ml of ETME, ascorbic acid, catechin, tannic acid, reserpine, methyl gallate and rutin. Cell proliferation and viability were measured by measuring absorbance of the coloured product spectrophotometrically at 460 nm using a microplate ELISA reader […] EX (Thermo Electron Corporation, USA).
(§2) All spectrophotometric data were presented as the mean six times ±SD and cell cycle and ROS analysis data by FACS was introduced as the mean three times ±SD. The statistical analysis was determined by KyPlot version 2.0 beta 15 (32 bit). […] The IC50 values were compared by paired t test. P < 0.05 was considered significant.

MCF-7 cells = settings: for IC50: Homo sapiens, MCF7, 48 h, read-out: IC50 against MCF-7; for IC50 against MCF-7: WST-1, 48 h, mean ± SD (n = 6)
Protocol: as §1, §2

WI-38 cells = settings: for IC50: Homo sapiens, WI-38, 48 h, read-out: IC50 against WI-38; for IC50 against WI-38: WST-1, 48 h, mean ± SD (n = 6)
Protocol: as §1, §2

Compound	cytotoxicity against A549 cells (A549 cells)	IC50 (A549 cells)	cytotoxicity against MCF-7 cells (MCF-7 cells)	IC50 (MCF-7 cells)	cytotoxicity against WI-38 cells (WI-38 cells)	IC50 (WI-38 cells)	IC50 against A549 (A549 cells)	IC50 against MCF-7 (MCF-7 cells)	IC50 against WI-38 (WI-38 cells)
C[C@@H]1O[C@@H](OC[C@H]2O[C@@H](Oc3c(-c4ccc(O)c(O)c4)oc4cc(O)cc(O)c4c3=O)[C@H](O)[C@@H](O)[C@@H]2O)[C@H](O)[C@H](O)[C@H]1O [Rutin]	negligible cytotoxicity	4180 ± 1610 µg/mL (≈ 6840 µM)	toxic	271 ± 9.85 µg/mL (≈ 444 µM)	negligible cytotoxicity	1230 ± 195 µg/mL (≈ 2020 µM)	–	–	–
COC(=O)[C@H]1[C@H]2C[C@@H]3c4[nH]c5cc(OC)ccc5c4CCN3C[C@H]2C[C@@H](OC(=O)c2cc(OC)c(OC)c(OC)c2)[C@@H]1OC [Reserpine, reference compound]	promissive cytotoxicity	68.5 ± 1.73 µg/mL (≈ 112 µM)	promissive cytotoxicity	57.3 ± 2.29 µg/mL (≈ 94.1 µM)	promissive cytotoxicity	50.5 ± 1.48 µg/mL (≈ 82.9 µM)	–	–	–
COC(=O)c1cc(O)c(O)c(O)c1 [Methyl gallate]	promissive cytotoxicity	77.2 ± 1.82 µg/mL (≈ 420 µM)	promissive cytotoxicity	53 ± 1.91 µg/mL (≈ 288 µM)	promissive cytotoxicity	344 ± 31.3 µg/mL (≈ 1870 µM)	–	–	–
Tannic acid	promissive cytotoxicity	–	promissive cytotoxicity	–	promissive cytotoxicity	–	302.25 ± 11.86 µg/mL	97.24 ± 4.89 µg/mL	308.32 ± 8.32 µg/mL
O.Oc1cc(O)c2c(c1)O[C@H](c1ccc(O)c(O)c1)[C@@H](O)C2 [Catechin]	negligible cytotoxicity	–	toxic	–	negligible cytotoxicity	–	4010.65 ± 1849.57 µg/mL	256.52 ± 17.14 µg/mL	753.56 ± 31.99 µg/mL
O=C1O[C@H]([C@@H](O)CO)C(O)=C1O [Ascorbic acid, reference compound]	negligible cytotoxicity	6020 ± 3440 µg/mL (≈ 34200 µM)	toxic	79.1 ± 2.2 µg/mL (≈ 449 µM)	negligible cytotoxicity	6800 ± 2250 µg/mL (≈ 38600 µM)	–	–	–
